# Experimental data published in PMC7395068, “The evolution of strategies to minimise the risk of human drug-induced liver injury (DILI) in drug discovery and development” (Archives of Toxicology, 2020).
# Like-named read-outs stand apart in the source and are kept apart here.
# Legend:
# PHH spheroids = details: In vitro Assay; ref Vorrink 2018; cited from earlier work
# [1] = cited from earlier work
# human hepatocytes = details: cited from earlier work
# [2] = cited from earlier work; remark: listed apart in the source
# [3] = system: isolated mouse liver mitochondria; details: In vitro Assay; ref Porceddu 2012; cited from earlier work
# hLiMTs [4] = details: cited from earlier work
# PHH = details: cited from earlier work
# HepaRG spheroids = experiment: Combined HCI (HCS) and cellular ATP 3D assay in HepaRG spheroids; details: Homo sapiens, HepaRG
# hLiMTs [5] = experiment: Combined HCI (HCS) and cellular ATP 3D assay in hLiMTs; details: Homo sapiens
# rBsep = details: cited from earlier work
# HepG2 cells [6] = details: In vitro Assay; ref Persson 2013; cited from earlier work
# HepG2 cells [7] = details: cited from earlier work
# [8] = system: THLE or HepG2 cells, isolated mitochondria, BSEP; details: In vitro Assay; ref Aleo 2019; cited from earlier work
# [9] = system: primary human hepatocytes, NIH3T3 fibroblasts, BSEP, CYP3A4; details: In vitro Assay; ref Schadt 2015; cited from earlier work
# [10] = In vitro Assay, ref Proctor 2017
# [11] = In vitro Assay, ref O'Brien 2006
# [12] = In vitro Assay, ref Dawson 2012
compound,measurement,setting,value
CCCSc1ccc2nc(NC(=O)OC)[nH]c2c1 [albendazole],hLiMTs ATP <20 x Cmax,PHH spheroids,-VE
same,In vivo DILI,[1]; ref Vorrink 2018,+VE
same,In vivo DILI,[1]; ref Xu 2008,+VE
same,Structural based (HCI),human hepatocytes,+VE
same,"DILI +VE (5-8), DILI -VE (-4)",[2]; ref Chen 2016,+VE
same,DILI severity category,[2]; ref Chen 2016,vMost-DILI-Concern
N=C(N)NC(=O)c1nc(Cl)c(N)nc1N [amiloride],hLiMTs ATP <20 x Cmax,PHH spheroids,-VE
same,In vivo DILI,[1]; in vivo,-VE
same,"DILI +VE (5-8), DILI -VE (-4)",[2]; in vivo,+VE
same,DILI severity category,[2]; in vivo,vLess-DILI-Concern
CCC1(c2ccc(N)cc2)CCC(=O)NC1=O (stereo not drawn) [aminoglutethimide],hLiMTs ATP <20 x Cmax,PHH spheroids,-VE
same,In vivo DILI,[1]; ref Vorrink 2018,-VE
same,In vivo DILI,[1]; ref Xu 2008,-VE
same,Structural based (HCI),"human hepatocytes; In vitro Assay, ref Xu 2008",-VE
Clc1ccc2c(c1)C(N1CCNCC1)=Nc1ccccc1O2 [amoxapine],hLiMTs ATP <20 x Cmax,PHH spheroids,-VE
same,In vivo DILI,[1]; ref Vorrink 2018,-VE
same,In vivo DILI,[1]; ref Xu 2008,-VE
same,Structural based (HCI),"human hepatocytes; In vitro Assay, ref Xu 2008",-VE
same,"DILI +VE (5-8), DILI -VE (-4)",[2]; ref Chen 2016,-VE
same,DILI severity category,[2]; ref Chen 2016,Ambiguous DILI-concern
Nc1cc(-c2ccncc2)c[nH]c1=O [amrinone],hLiMTs ATP <20 x Cmax,PHH spheroids,-VE
same,In vivo DILI,[1]; ref Vorrink 2018,+VE
same,In vivo DILI,[1]; ref Xu 2008,+VE
same,Structural based (HCI),"human hepatocytes; In vitro Assay, ref Xu 2008",-VE
same,"DILI +VE (5-8), DILI -VE (-4)",[2]; ref Chen 2016,-VE
same,DILI severity category,[2]; ref Chen 2016,Ambiguous DILI-concern
CC(C)c1c(C(=O)Nc2ccccc2)c(-c2ccccc2)c(-c2ccc(F)cc2)n1CC[C@@H](O)C[C@@H](O)CC(=O)O [atorvastatin],in vitro data EC20<=2uM,[3],+VE
same,hLiMTs ATP <100uM,hLiMTs [4]; [10],+VE (IC50 threshold of 100 µM)
same,PHH ATP <100uM,PHH; [10],-VE
CC(C)COCC(CN(Cc1ccccc1)c1ccccc1)N1CCCC1 (stereo not drawn) [bepridil],hLiMTs ATP <20 x Cmax,PHH spheroids,+VE (IC20 < 20 × Cmax.tot cut-off)
same,In vivo DILI,[1]; ref Vorrink 2018,+VE
same,In vivo DILI,[1]; ref Xu 2008,+VE
same,Structural based (HCI),"human hepatocytes; In vitro Assay, ref Xu 2008",+VE
C[C@]12CC[C@@H]3c4ccc(O)cc4CC[C@H]3[C@@H]1CC[C@@H]2O [beta-estradiol],in vitro data EC2<=1x Cmax,[3],-VE
same,in vitro data EC20<=2uM,[3],-VE
same,hLiMTs ATP <100uM,hLiMTs [4]; [10],+VE (IC50 threshold of 100 µM)
same,PHH ATP <100uM,PHH; [10],-VE
CN(C)CCC(c1ccc(Br)cc1)c1ccccn1 (stereo not drawn) [brompheniramine],hLiMTs ATP <20 x Cmax,PHH spheroids,-VE
same,Structural based (HCI),"human hepatocytes; In vitro Assay, ref Xu 2008",-VE
Cc1cc(C2CCCCC2)n(O)c(=O)c1 [ciclopirox],hLiMTs ATP <20 x Cmax,PHH spheroids,-VE
same,In vivo DILI,[1]; ref Vorrink 2018,-VE
same,In vivo DILI,[1]; ref Xu 2008,-VE
same,Structural based (HCI),"human hepatocytes; In vitro Assay, ref Xu 2008",-VE
CCN(CC)C(=O)N1CCN(C)CC1 [diethylcarbamazine],hLiMTs ATP <20 x Cmax,PHH spheroids,-VE
same,Structural based (HCI),"human hepatocytes; In vitro Assay, ref Xu 2008",-VE
COc1ccc([C@@H]2Sc3ccccc3N(CCN(C)C)C(=O)[C@@H]2OC(C)=O)cc1 [diltiazem],hLiMTs ATP <20 x Cmax,PHH spheroids,-VE
same,Structural based (HCI),"human hepatocytes; In vitro Assay, ref Xu 2008",-VE
COc1cc2c(cc1OC)C(=O)C(CC1CCN(Cc3ccccc3)CC1)C2 (stereo not drawn) [donepezil],minimal effective concentration,HepaRG spheroids; read-out: ATP endpoint MEC,6.49 µM
same,minimal effective concentration,HepaRG spheroids; read-out: HCS endpoint MEC,9.43 µM
same,AC50,hLiMTs [5]; read-out: ATP endpoint AC50,9.76 µM
same,minimal effective concentration,hLiMTs [5]; read-out: ATP endpoint MEC,3.17 µM
same,AC50,hLiMTs [5]; read-out: HCS endpoint AC50,7.19 µM
same,minimal effective concentration,hLiMTs [5]; read-out: HCS endpoint MEC,0.487 µM
same,Inhibition of rBsep cutoff<3,rBsep,-VE
N[C@@H](Cc1ccc(O)c(O)c1)C(=O)O [levodopa],hLiMTs ATP <20 x Cmax,PHH spheroids,-VE
same,Structural based (HCI),"human hepatocytes; In vitro Assay, ref Xu 2008",-VE
NCCCC[C@H](N[C@@H](CCc1ccccc1)C(=O)O)C(=O)N1CCC[C@H]1C(=O)O [lisinopril],hLiMTs ATP <20 x Cmax,PHH spheroids,+VE (IC20 < 20 × Cmax.tot cut-off)
same,Structural based (HCI),"human hepatocytes; In vitro Assay, ref Xu 2008",-VE
Clc1ccc(COC(Cn2ccnc2)c2ccc(Cl)cc2Cl)c(Cl)c1 (stereo not drawn) [miconazole],hLiMTs ATP <20 x Cmax,PHH spheroids,-VE
same,Structural based (HCI),"human hepatocytes; In vitro Assay, ref Xu 2008",-VE
CCc1c(C)[nH]c2c1C(=O)C(CN1CCOCC1)CC2 (stereo not drawn) [molindone],hLiMTs ATP <20 x Cmax,PHH spheroids,-VE
same,In vivo DILI,[1]; ref Vorrink 2018,+VE
same,In vivo DILI,[1]; ref Xu 2008,+VE
same,Structural based (HCI),"human hepatocytes; In vitro Assay, ref Xu 2008",-VE
COc1ccc2cc([C@H](C)C(=O)O)ccc2c1 [naproxen],hLiMTs ATP <100uM,hLiMTs [4]; [10],-VE
same,Cluser analysis,HepG2 cells [6],-VE
same,Structural based (HCI),HepG2 cells [6],-VE
same,PHH ATP <100uM,PHH; [10],-VE
same,Structural based (HCI),HepG2 cells [7]; [11],-VE
COC(=O)C1=C(C)NC(C)=C(C(=O)OC)C1c1ccccc1[N+](=O)[O-] [nifedipine],Inhibition of rBsep cutoff<3,rBsep,+VE
COCCOC(=O)C1=C(C)NC(C)=C(C(=O)OC(C)C)C1c1cccc([N+](=O)[O-])c1 (stereo not drawn) [nimodipine],hLiMTs ATP <20 x Cmax,PHH spheroids,+VE (IC20 < 20 × Cmax.tot cut-off)
same,Structural based (HCI),"human hepatocytes; In vitro Assay, ref Xu 2008",+VE
CC(C)(C)NC[C@H](O)COc1ccccc1C1CCCC1 [penbutolol],Partition Hybrid HRM Score,[8],-VE
same,Ro2 Hybrid HRM Score,[8],-VE
same,In vivo DILI,[1]; ref Aleo 2019,-VE
same,In vivo DILI,[1]; ref Proctor 2017,-VE
same,In vivo DILI,[1]; ref Schadt 2015,-VE
same,hLiMTs ATP <100uM,hLiMTs [4]; [10],+VE (IC50 threshold of 100 µM)
same,Cellular toxicity (3T3 cells),[9],-VE
same,Combined Assay,[9],-VE
same,GSH adduct HML,[9],-VE
same,Hepatocyte cellular toxicity,[9],-VE
same,MitoTox 3T3,[9],-VE
same,TDI CYP3A4,[9],-VE
same,hBSEP inhibition,[9],-VE
same,"DILI +VE (5-8), DILI -VE (-4)",[2]; ref Chen 2016,-VE
same,DILI severity category,[2]; ref Chen 2016,vNo-DILI-Concern
same,PHH ATP <100uM,PHH; [10],+VE (IC50 threshold of 100 µM)
[H]/N=C(/N)N/C(=N/[H])NCCc1ccccc1 [phenformin],In vivo DILI,[1]; ref O'Brien 2006,-VE
same,In vivo DILI,[1]; ref Proctor 2017,+VE
same,hLiMTs ATP <100uM,hLiMTs [4]; [10],+VE (IC50 threshold of 100 µM)
same,PHH ATP <100uM,PHH; [10],+VE (IC50 threshold of 100 µM)
same,Structural based (HCI),HepG2 cells [7]; [11],+VE (lowest HCI endpoint IC50 (or in the absence of dose–response < 100 µM) < 30 × total human plasma exposure levels (Cmax.tot))
CC(C)NCC(O)COc1cccc2[nH]ccc12 (stereo not drawn) [pindolol],hLiMTs ATP <20 x Cmax,PHH spheroids,-VE
same,In vivo DILI,[1]; ref Vorrink 2018,-VE
same,In vivo DILI,[1]; ref Xu 2008,-VE
same,"DILI +VE (5-8), DILI -VE (-4)",[2]; ref Chen 2016,-VE
same,DILI severity category,[2]; ref Chen 2016,vNo-DILI-Concern
O=C(C1CCCCC1)N1CC(=O)N2CCc3ccccc3C2C1 (stereo not drawn) [praziquantel],Inhibition of rBsep cutoff<1& cmax u>.2,rBsep; [12],-VE
same,Inhibition of rBsep cutoff<3,rBsep; [12],+VE
same,Structural based (HCI),HepG2 cells [7]; [11],+VE
CCN(CC)CCCC(C)Nc1c2ccc(Cl)cc2nc2ccc(OC)cc12 (stereo not drawn) [quinacrine],In vivo DILI,[1]; in vivo,+VE
same,hLiMTs ATP <100uM,hLiMTs [4],+VE (key: +VE: IC50 threshold of 100 µM)
same,PHH ATP <100uM,PHH,+VE (key: +VE: IC50 threshold of 100 µM)
same,Structural based (HCI),HepG2 cells [7],+VE (key: +VE: lowest HCI endpoint IC50 (or in the absence of dose–response < 100 µM) < 30 × total human plasma exposure levels (Cmax.tot))
CC(C)c1nc(N(C)S(C)(=O)=O)nc(-c2ccc(F)cc2)c1/C=C/[C@@H](O)C[C@@H](O)CC(=O)O [rosuvastatin],In vivo DILI,[1]; ref O'Brien 2006,+VE
same,In vivo DILI,[1]; ref Proctor 2017,+VE
same,hLiMTs ATP <100uM,hLiMTs [4]; [10],+VE (IC50 threshold of 100 µM)
same,"DILI +VE (5-8), DILI -VE (-4)",[2]; ref Chen 2016,+VE
same,DILI severity category,[2]; ref Chen 2016,vLess-DILI-Concern
same,PHH ATP <100uM,PHH; [10],+VE (IC50 threshold of 100 µM)
same,Structural based (HCI),HepG2 cells [7]; [11],+VE (lowest HCI endpoint IC50 (or in the absence of dose–response < 100 µM) < 30 × total human plasma exposure levels (Cmax.tot))
CN[C@@H]1[C@H](O)[C@H](NC)[C@H]2O[C@@]3(O)C(=O)C[C@@H](C)O[C@H]3O[C@@H]2[C@H]1O [spectinomycin],in vitro data EC2<=1x Cmax,[3],+VE
same,in vitro data EC20<=2uM,[3],+VE
same,In vivo DILI,[1]; ref Porceddu 2012,+VE
same,In vivo DILI,[1]; ref Proctor 2017,+VE
same,hLiMTs ATP <100uM,hLiMTs [4]; [10],-VE
same,"DILI +VE (5-8), DILI -VE (-4)",[2]; ref Chen 2016,-VE
same,DILI severity category,[2]; ref Chen 2016,Ambiguous DILI-concern
same,PHH ATP <100uM,PHH; [10],-VE
O=C(O)c1cc(/N=N/c2ccc(S(=O)(=O)Nc3ccccn3)cc2)ccc1O [sulfasalazine],hLiMTs ATP <20 x Cmax,PHH spheroids,+VE (IC20 < 20 × Cmax.tot cut-off)
same,Structural based (HCI),"human hepatocytes; In vitro Assay, ref Xu 2008",+VE
CC(C)(C)c1ccc(C(O)CCCN2CCC(C(O)(c3ccccc3)c3ccccc3)CC2)cc1 (stereo not drawn) [terfenadine],hLiMTs ATP <20 x Cmax,PHH spheroids,-VE
